# Results taken from patent US20240132484A1, “BROAD SPECTRUM ANTIVIRAL COMPOUNDS TARGETING THE SKI COMPLEX” (priority 2020, published 2024).
# Values joined by “and” are separate entries in the source; they are usually repeats but may differ in a detail not shown here. Identical values can stand only once. “Also recorded” adds a separate entry of the source. Like-named read-outs stand apart in the source and are kept apart here.
# Experiments:
# SARS2 = type: cell-based, SARS-CoV-2; conditions: for Percentage Infection Relative to Appropriate DMSO Control with Avg Background Subtraction: Nunc Celigo plates; for Percentage Inhibition Average 1 μM / Screening data (Relative infection to DMSO controls) Average 1 μM: SARS2, 1 μM; for Screening data (Relative infection to DMSO controls) Average 1 μM / Screening data (Relative infection to DMSO controls) Average 5 μM / Screening data (Relative infection to DMSO controls) Average 10 μM / Screening data (Relative infection to DMSO controls) Average 25 μM / Screening data (Relative infection to DMSO controls) Average 50 μM / Average (relative infection to DMSO over the 5 tested concentrations): 100=DMSO control; for Percentage Inhibition Average 5 μM / Screening data (Relative infection to DMSO controls) Average 5 μM: SARS2, 5 μM; for Percentage Inhibition Average 10 μM / Screening data (Relative infection to DMSO controls) Average 10 μM: SARS2, 10 μM; for Percentage Inhibition Average 25 μM / Screening data (Relative infection to DMSO controls) Average 25 μM: SARS2, 25 μM; for Percentage Inhibition Average 50 μM / Screening data (Relative infection to DMSO controls) Average 50 μM: SARS2, 50 μM; for Average (relative infection to DMSO over the 5 tested concentrations): SARS2, average over 1 to 50 uM; for Infection Data, Average, Mean: average of Exp 1-2 (SMW491, SMW492)
# cells (nuclei count) = conditions: for Relative cell count to DMSO controls, Average 1 μM / Relative cell count to DMSO controls, Average 5 μM / Relative cell count to DMSO controls, Average 10 μM / Relative cell count to DMSO controls, Average 25 μM / Relative cell count to DMSO controls, Average 50 μM: toxicity data, 100=DMSO control; for Toxicity Data, Average, Mean percentage relative to DMSO control: Average of Exp 1 (SMW491) and Exp 2 (SMW492); for Relative cell count to DMSO controls, Average (for correlation analysis): average value over the 5 tested concentrations (1 to 50 uM)
smiles,measurement,setting,value
CCN(CC)CCN(Cc1ccccn1)C(=O)c1cccs1 [SILCS37],Percentage Infection Relative to Appropriate DMSO Control with Avg Background Subtraction,"SARS2; Exp 1 (SMW491), 1 uM",88.98% and 80.18%
same,Percentage Infection Relative to Appropriate DMSO Control with Avg Background Subtraction,"SARS2; Exp 1 (SMW491), 5 uM",95.46% and 97.68%
same,Percentage Infection Relative to Appropriate DMSO Control with Avg Background Subtraction,"SARS2; Exp 1 (SMW491), 10 uM",109.85% and 92.25%
same,Percentage Infection Relative to Appropriate DMSO Control with Avg Background Subtraction,"SARS2; Exp 1 (SMW491), 25 uM",117.51% and 105.36%
same,Percentage Infection Relative to Appropriate DMSO Control with Avg Background Subtraction,"SARS2; Exp 1 (SMW491), 50 uM",136.02% and 127.57%
same,Percentage Infection Relative to Appropriate DMSO Control with Avg Background Subtraction,"SARS2; Exp 2 (SMW492), 1 uM",80.82% and 84.84%
same,Percentage Infection Relative to Appropriate DMSO Control with Avg Background Subtraction,"SARS2; Exp 2 (SMW492), 5 uM",71.36% and 74.06%
same,Percentage Infection Relative to Appropriate DMSO Control with Avg Background Subtraction,"SARS2; Exp 2 (SMW492), 25 uM",121.75% and 63.91%
same,Percentage Infection Relative to Appropriate DMSO Control with Avg Background Subtraction,"SARS2; Exp 2 (SMW492), 50 uM",88.75% and 46.65%
same,Percentage Inhibition Average 1 μM,SARS2,16.29%
same,Screening data (Relative infection to DMSO controls) Average 1 μM,SARS2,83.71
same,Percentage Inhibition Average 5 μM,SARS2,15.36%
same,Screening data (Relative infection to DMSO controls) Average 5 μM,SARS2,84.64
same,Percentage Inhibition Average 10 μM,SARS2,23.94%
same,Screening data (Relative infection to DMSO controls) Average 10 μM,SARS2,76.06
same,Percentage Inhibition Average 25 μM,SARS2,−2.13%
same,Screening data (Relative infection to DMSO controls) Average 25 μM,SARS2,102.13
same,Percentage Inhibition Average 50 μM,SARS2,0.25%
same,Screening data (Relative infection to DMSO controls) Average 50 μM,SARS2,99.75
same,Average (relative infection to DMSO over the 5 tested concentrations),SARS2,89.26
same,"Infection Data, Average, Mean","SARS2; n 4, 1 uM",83.71%
same,"Infection Data, Average, Mean","SARS2; n 4, 5 uM",84.64%
same,"Infection Data, Average, Mean","SARS2; n 4, 10 uM",76.06%
same,"Infection Data, Average, Mean","SARS2; n 4, 25 uM",102.13%
same,"Infection Data, Average, Mean","SARS2; n 4, 50 uM",99.75%
same,"Relative cell count to DMSO controls, Average 1 μM",cells (nuclei count),108.95
same,"Relative cell count to DMSO controls, Average 5 μM",cells (nuclei count),110.16
same,"Relative cell count to DMSO controls, Average 10 μM",cells (nuclei count),116.31
same,"Relative cell count to DMSO controls, Average 25 μM",cells (nuclei count),104.07
same,"Relative cell count to DMSO controls, Average 50 μM",cells (nuclei count),75.29
same,"Toxicity Data, Average, Mean percentage relative to DMSO control","cells (nuclei count); n=4, 1 uM",108.95%
same,"Toxicity Data, Average, Mean percentage relative to DMSO control","cells (nuclei count); n=4, 5 uM",110.16%
same,"Toxicity Data, Average, Mean percentage relative to DMSO control","cells (nuclei count); n=4, 10 uM",116.31%
same,"Toxicity Data, Average, Mean percentage relative to DMSO control","cells (nuclei count); n=4, 25 uM",104.07%
same,"Toxicity Data, Average, Mean percentage relative to DMSO control","cells (nuclei count); n=4, 50 uM",75.29%
same,"Relative cell count to DMSO controls, Average (for correlation analysis)",cells (nuclei count),102.96
CC1=C(C(=O)NCC2CCCCC2)C(c2cccs2)NC(=O)N1 (stereo not shown) [SILCS70],Percentage Inhibition Average 1 μM,SARS2,71.98%
same,Screening data (Relative infection to DMSO controls) Average 1 μM,SARS2,28.02
same,Percentage Inhibition Average 5 μM,SARS2,38.83%
same,Screening data (Relative infection to DMSO controls) Average 5 μM,SARS2,61.17
same,Percentage Inhibition Average 10 μM,SARS2,10.99%
same,Screening data (Relative infection to DMSO controls) Average 10 μM,SARS2,89.01
same,Percentage Inhibition Average 25 μM,SARS2,−45.91%
same,Screening data (Relative infection to DMSO controls) Average 25 μM,SARS2,145.91
same,Percentage Inhibition Average 50 μM,SARS2,−47.89%
same,Screening data (Relative infection to DMSO controls) Average 50 μM,SARS2,147.89
same,Average (relative infection to DMSO over the 5 tested concentrations),SARS2,94.40
same,"Relative cell count to DMSO controls, Average 1 μM",cells (nuclei count),130.04
same,"Relative cell count to DMSO controls, Average 5 μM",cells (nuclei count),111.32
same,"Relative cell count to DMSO controls, Average 10 μM",cells (nuclei count),104.3
same,"Relative cell count to DMSO controls, Average 25 μM",cells (nuclei count),93.9
same,"Relative cell count to DMSO controls, Average 50 μM",cells (nuclei count),79.59
same,"Relative cell count to DMSO controls, Average (for correlation analysis)",cells (nuclei count),103.83
COc1ccc(CNCCc2ccccc2F)c(OCC(O)CN2CCN(C)CC2)c1 (racemic) [SILCS41],SARS2 antiviral activity,SARS2,better activity than the original compound; also recorded: improved properties over UMB18g
same,Percentage Infection Relative to Appropriate DMSO Control with Avg Background Subtraction,"SARS2; Exp 1 (SMW491), 1 uM",92.14% and 78.53%
same,Percentage Infection Relative to Appropriate DMSO Control with Avg Background Subtraction,"SARS2; Exp 1 (SMW491), 5 uM",20.40% and 20.73%
same,Percentage Infection Relative to Appropriate DMSO Control with Avg Background Subtraction,"SARS2; Exp 1 (SMW491), 10 uM",2.55% and 1.51%
same,Percentage Infection Relative to Appropriate DMSO Control with Avg Background Subtraction,"SARS2; Exp 1 (SMW491), 25 uM",2.26% and 4.77%
same,Percentage Infection Relative to Appropriate DMSO Control with Avg Background Subtraction,"SARS2; Exp 1 (SMW491), 50 uM",5.27% and 3.84%
same,Percentage Infection Relative to Appropriate DMSO Control with Avg Background Subtraction,"SARS2; Exp 2 (SMW492), 1 uM",11.86% and 10.73%
same,Percentage Infection Relative to Appropriate DMSO Control with Avg Background Subtraction,"SARS2; Exp 2 (SMW492), 5 uM",15.34% and 12.91%
same,Percentage Infection Relative to Appropriate DMSO Control with Avg Background Subtraction,"SARS2; Exp 2 (SMW492), 10 uM",1.08% and 2.35%
same,Percentage Infection Relative to Appropriate DMSO Control with Avg Background Subtraction,"SARS2; Exp 2 (SMW492), 25 uM",1.58% and 3.10%
same,Percentage Infection Relative to Appropriate DMSO Control with Avg Background Subtraction,"SARS2; Exp 2 (SMW492), 50 uM",8.27% and 6.25%
same,Percentage Inhibition Average 1 μM,SARS2,51.68%
same,Screening data (Relative infection to DMSO controls) Average 1 μM,SARS2,48.32
same,Percentage Inhibition Average 5 μM,SARS2,82.65%
same,Screening data (Relative infection to DMSO controls) Average 5 μM,SARS2,17.35
same,Percentage Inhibition Average 10 μM,SARS2,98.13%
same,Screening data (Relative infection to DMSO controls) Average 10 μM,SARS2,1.87
same,Percentage Inhibition Average 25 μM,SARS2,97.07%
same,Screening data (Relative infection to DMSO controls) Average 25 μM,SARS2,2.93
same,Percentage Inhibition Average 50 μM,SARS2,94.09%
same,Screening data (Relative infection to DMSO controls) Average 50 μM,SARS2,5.91
same,Average (relative infection to DMSO over the 5 tested concentrations),SARS2,15.28
same,"Infection Data, Average, Mean","SARS2; n 4, 1 uM",48.32%
same,"Infection Data, Average, Mean","SARS2; n 4, 5 uM",17.35%
same,"Infection Data, Average, Mean","SARS2; n 4, 10 uM",1.87%
same,"Infection Data, Average, Mean","SARS2; n 4, 25 uM",2.93%
same,"Infection Data, Average, Mean","SARS2; n 4, 50 uM",5.91%
same,"Relative cell count to DMSO controls, Average 1 μM",cells (nuclei count),118.33
same,"Relative cell count to DMSO controls, Average 5 μM",cells (nuclei count),139.55
same,"Relative cell count to DMSO controls, Average 10 μM",cells (nuclei count),124.03
same,"Relative cell count to DMSO controls, Average 25 μM",cells (nuclei count),118.34
same,"Relative cell count to DMSO controls, Average 50 μM",cells (nuclei count),101.49
same,"Toxicity Data, Average, Mean percentage relative to DMSO control","cells (nuclei count); n=4, 1 uM",118.33%
same,"Toxicity Data, Average, Mean percentage relative to DMSO control","cells (nuclei count); n=4, 5 uM",139.55%
same,"Toxicity Data, Average, Mean percentage relative to DMSO control","cells (nuclei count); n=4, 10 uM",124.03%
same,"Toxicity Data, Average, Mean percentage relative to DMSO control","cells (nuclei count); n=4, 25 uM",118.34%
same,"Toxicity Data, Average, Mean percentage relative to DMSO control","cells (nuclei count); n=4, 50 uM",101.49%
same,"Relative cell count to DMSO controls, Average (for correlation analysis)",cells (nuclei count),120.35
